Assay results as given in patent US20100267561A1, “HERBICIDAL PYRIDAZINONE DERIVATIVES” (priority 2007, published 2010).

What was measured:
Type in all cases: in vivo
[1] = system: large crabgrass (Digitaria sanguinalis); experiment: Test B pre-/postemergence plant response; conditions: Preemergence
Method in brief: (§1)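 Preemergence and postemergence (plants 2-18 cm, 1- to 4-leaf stage) applications used test chemicals in a non-phytotoxic solvent with surfactant. Plants were held in a greenhouse 13 to 15 days, then rated visually against controls on a 0-100 scale (0 no effect, 100 complete control).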

[2] = system: Russian thistle (Salsola iberica); experiment: Test B pre-/postemergence plant response; conditions: Preemergence
Method in brief: as §1

[3] = system: common ragweed (Ambrosia elation); experiment: Test B pre-/postemergence plant response; conditions: Preemergence
Method in brief: as §1

[4] = system: bermudagrass (Cynodon dactylon); experiment: Test B pre-/postemergence plant response; conditions: Preemergence; for Bermudagrass plant response rating: 8 g ai/ha
Method in brief: as §1

[5] = system: common (oilseed) sunflower (Helianthus annuus); experiment: Test B pre-/postemergence plant response; conditions: Preemergence
Method in brief: as §1

[6] = system: goosegrass (Eleusine indica); experiment: Test B pre-/postemergence plant response; conditions: Preemergence
Method in brief: as §1

[7] = system: cocklebur (Xanthium strumarium); experiment: Test B pre-/postemergence plant response; conditions: Preemergence; for Cocklebur plant response rating: 8 g ai/ha
Method in brief: as §1

[8] = system: wheat (Triticum aestivum); experiment: Test B pre-/postemergence plant response; conditions: Preemergence; for Wheat plant response rating: scale 0 to 100
Method in brief: as §1

[9] = system: lambsquarters (Chenopodium album); experiment: Test B pre-/postemergence plant response; conditions: Preemergence
Method in brief: as §1

soybean (Glycine max) = experiment: Test B pre-/postemergence plant response; conditions: Preemergence
Method in brief: as §1

[10] = system: surinam grass (Brachiaria decumbens); experiment: Test B pre-/postemergence plant response; conditions: Preemergence; for Surinam Grass plant response rating: scale 0 to 100
Method in brief: as §1

corn (Zea mays) = experiment: Test B pre-/postemergence plant response; conditions: Preemergence
Method in brief: as §1

[11] = system: ducksalad (Heteranthera limosa); experiment: Test B flooded paddy test plant response
Method in brief: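 Compounds were added directly to paddy water over 2-leaf-stage plants in pots flooded 3 cm above soil, water depth maintained. Visual injury scored against controls after 13 to 15 days in greenhouse, 0 (none) to 100 (complete control); dash indicates no result.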

[12] = 31 g ai/ha, 0 to 100 scale, 0 no effect, 100 complete control
[13] = 31 g ai/ha, scale 0 to 100 (0 no effect, 100 complete control)
[14] = scale 0 to 100 (0 no effect, 100 complete control)
[15] = 16 g ai/ha, scale 0 to 100 (0 no effect, 100 complete control)
[16] = 62 g ai/ha, 0 to 100 scale, 0 no effect, 100 complete control
[17] = Flood (flooded paddy test), 62 g ai/ha, scale 0 to 100, 0 no effect, 100 complete control
[18] = Flood (flooded paddy test), 125 g ai/ha, scale 0 to 100, 0 no effect, 100 complete control
[19] = Flood (flooded paddy test), 250 g ai/ha, scale 0 to 100, 0 no effect, 100 complete control

For `Cc1cc(-c2ccc(Cl)cc2)nn1-c1c(OS(=O)(=O)c2ccc(Cl)s2)cnn(C)c1=O` [Compound 55], the “Plant response rating, Crabgrass, Large” value [1, 12] was 100, the “Plant response rating, Crabgrass, Large” value ([1]; 62 g ai/ha, scale 0 to 100) was 100 and the “Crabgrass, Large plant response rating” value ([1]; 8 g ai/ha, scale 0 to 100) was 20. The “Crabgrass, Large plant response rating” value ([1]; 16 g ai/ha, scale 0 to 100) was 98, the “Plant response rating, Russian Thistle” value [2, 13] was 0 and the “Plant response rating, Russian Thistle” value ([2]; 62 g ai/ha, scale 0 to 100) was 0. The “Russian Thistle plant response rating” value ([2]; 8 g ai/ha, scale 0 to 100) was 0, the “Russian Thistle plant response rating” value ([2]; 16 g ai/ha, scale 0 to 100) was 0 and the “Plant response rating, Ragweed” value [3, 13] was 0. For the same compound, the “Plant response rating, Ragweed” value ([3]; 62 g ai/ha, scale 0 to 100) was 0, the “Ragweed plant response rating” value ([3]; 8 g ai/ha, scale 0 to 100) was 0 and the “Ragweed plant response rating” value ([3]; 16 g ai/ha, scale 0 to 100) was 0. The “Bermudagrass plant response rating” value [4, 14] was 100, the “Plant response rating, Bermudagrass” value [4, 15] was 100 and the “Plant response rating, Bermudagrass” value [4, 12] was 100. For the same compound, the “Plant response rating, Bermudagrass” value ([4]; 62 g ai/ha, scale 0 to 100) was 100, the “Plant response rating, Sunflower” value [5, 13] was 0 and the “Plant response rating, Sunflower” value ([5]; 62 g ai/ha, scale 0 to 100) was 0. For the same compound, the “Sunflower plant response rating” value ([5]; 8 g ai/ha, scale 0 to 100) was 0, the “Sunflower plant response rating” value ([5]; 16 g ai/ha, scale 0 to 100) was 0 and the “Plant response rating, Goosegrass” value [6, 12] was 98. The “Plant response rating, Goosegrass” value ([6]; 62 g ai/ha, scale 0 to 100) was 100, the “Goosegrass plant response rating” value ([6]; 8 g ai/ha, scale 0 to 100) was 55 and the “Goosegrass plant response rating” value ([6]; 16 g ai/ha, scale 0 to 100) was 90. The “Plant response rating, Cocklebur” value [7, 12] was 0, the “Plant response rating, Cocklebur” value ([7]; 62 g ai/ha, scale 0 to 100) was 0 and the “Cocklebur plant response rating” value ([7]; scale 0 to 100) was 0. For the same compound, the “Plant response rating, Wheat” value [8, 13] was 0, the “Plant response rating, Wheat” value [8, 16] was 5 and the “Wheat plant response rating” value ([8]; 16 g ai/ha) was 0. For the same compound, the “Plant response rating, Lambsquarters” value [9, 12] was 0, the “Plant response rating, Lambsquarters” value ([9]; 62 g ai/ha, scale 0 to 100) was 0 and the “Lambsquarters plant response rating” value ([9]; 8 g ai/ha, scale 0 to 100) was 0. The “Lambsquarters plant response rating” value ([9]; 16 g ai/ha, scale 0 to 100) was 0, the “Plant response rating, Soybean” value (soybean (Glycine max); [13]) was 0 and the “Plant response rating, Soybean” value (soybean (Glycine max); 62 g ai/ha, scale 0 to 100) was 0. The “Soybean plant response rating” value (soybean (Glycine max); 8 g ai/ha, scale 0 to 100) was 0, the “Soybean plant response rating” value (soybean (Glycine max); 16 g ai/ha, scale 0 to 100) was 0 and the “Plant response rating, Surinam Grass” value [10, 13] was 100. For the same compound, the “Plant response rating, Surinam Grass” value [10, 16] was 100, the “Surinam Grass plant response rating” value ([10]; 8 g ai/ha) was 15 and the “Surinam Grass plant response rating” value ([10]; 16 g ai/ha) was 50. For the same compound, the “Plant response rating, Corn” value (corn (Zea mays); [12]) was 80, the “Plant response rating, Corn” value (corn (Zea mays); 62 g ai/ha, scale 0 to 100) was 95 and the “Corn plant response rating” value (corn (Zea mays); 8 g ai/ha, scale 0 to 100) was 0. The “Corn plant response rating” value (corn (Zea mays); 16 g ai/ha, scale 0 to 100) was 0, the “Plant response rating, Ducksalad” value [11, 17] was 0 and the “Plant response rating, Ducksalad” value [11, 18] was 0. The “Plant response rating, Ducksalad” value [11, 19] was 75 and the “Plant response rating, Ducksalad” value ([11]; Flood, 31 g ai/ha, scale 0 to 100) was 0.
In the case of `Cc1ccc(-c2ccc(Cl)cc2)cc1-c1c(O)cnn(C)c1=O` [Compound 46], the “Plant response rating, Crabgrass, Large” value [1, 15] is reported as 0, the “Plant response rating, Crabgrass, Large” value [1, 12] is reported as 60 and the “Plant response rating, Crabgrass, Large” value ([1]; 62 g ai/ha, scale 0 to 100) is reported as 100. For the same compound, the “Crabgrass, Large plant response rating” value ([1]; 8 g ai/ha, scale 0 to 100) was 0, the “Plant response rating, Russian Thistle” value [2, 15] was 0 and the “Plant response rating, Russian Thistle” value [2, 13] was 0. The “Plant response rating, Russian Thistle” value ([2]; 62 g ai/ha, scale 0 to 100) was 0, the “Russian Thistle plant response rating” value ([2]; 8 g ai/ha, scale 0 to 100) was 0 and the “Plant response rating, Ragweed” value [3, 15] was 0. The “Plant response rating, Ragweed” value [3, 13] was 0, the “Plant response rating, Ragweed” value ([3]; 62 g ai/ha, scale 0 to 100) was 0 and the “Ragweed plant response rating” value ([3]; 8 g ai/ha, scale 0 to 100) was 0. The “Bermudagrass plant response rating” value [4, 14] was 0, the “Plant response rating, Bermudagrass” value [4, 15] was 20 and the “Plant response rating, Bermudagrass” value [4, 12] was 85. For the same compound, the “Plant response rating, Bermudagrass” value ([4]; 62 g ai/ha, scale 0 to 100) was 100, the “Plant response rating, Sunflower” value [5, 15] was 0 and the “Plant response rating, Sunflower” value [5, 13] was 0. The “Plant response rating, Sunflower” value ([5]; 62 g ai/ha, scale 0 to 100) was 0, the “Sunflower plant response rating” value ([5]; 8 g ai/ha, scale 0 to 100) was 0 and the “Plant response rating, Goosegrass” value [6, 15] was 100. For the same compound, the “Plant response rating, Goosegrass” value [6, 12] was 100, the “Plant response rating, Goosegrass” value ([6]; 62 g ai/ha, scale 0 to 100) was 100 and the “Goosegrass plant response rating” value ([6]; 8 g ai/ha, scale 0 to 100) was 0. The “Plant response rating, Cocklebur” value [7, 15] was 0, the “Plant response rating, Cocklebur” value [7, 12] was 0 and the “Plant response rating, Cocklebur” value ([7]; 62 g ai/ha, scale 0 to 100) was 0. The “Cocklebur plant response rating” value ([7]; scale 0 to 100) was 0, the “Plant response rating, Wheat” value [8, 15] was 0 and the “Plant response rating, Wheat” value [8, 13] was 0. The “Plant response rating, Wheat” value [8, 16] was 0, the “Wheat plant response rating” value ([8]; 8 g ai/ha) was 0 and the “Plant response rating, Lambsquarters” value [9, 15] was 0. For the same compound, the “Plant response rating, Lambsquarters” value [9, 12] was 0, the “Plant response rating, Lambsquarters” value ([9]; 62 g ai/ha, scale 0 to 100) was 0 and the “Lambsquarters plant response rating” value ([9]; 8 g ai/ha, scale 0 to 100) was 0. For the same compound, the “Plant response rating, Soybean” value (soybean (Glycine max); [15]) was 0, the “Plant response rating, Soybean” value (soybean (Glycine max); [13]) was 0 and the “Plant response rating, Soybean” value (soybean (Glycine max); 62 g ai/ha, scale 0 to 100) was 0. The “Soybean plant response rating” value (soybean (Glycine max); 8 g ai/ha, scale 0 to 100) was 0, the “Plant response rating, Surinam Grass” value [10, 15] was 0 and the “Plant response rating, Surinam Grass” value [10, 13] was 0. The “Plant response rating, Surinam Grass” value [10, 16] was 0, the “Surinam Grass plant response rating” value ([10]; 8 g ai/ha) was 0 and the “Plant response rating, Corn” value (corn (Zea mays); [15]) was 0. For the same compound, the “Plant response rating, Corn” value (corn (Zea mays); [12]) was 0, the “Plant response rating, Corn” value (corn (Zea mays); 62 g ai/ha, scale 0 to 100) was 0 and the “Corn plant response rating” value (corn (Zea mays); 8 g ai/ha, scale 0 to 100) was 0. The “Plant response rating, Ducksalad” value [11, 17] was 30, the “Plant response rating, Ducksalad” value [11, 18] was 45 and the “Plant response rating, Ducksalad” value [11, 19] was 85.
